Results published in patent publication US11918551B2, “Methods of treating seizure disorders and Prader-Willi syndrome” (Ovid Therapeutics, Inc., priority 2017, dated 2024).

Test: plasma pharmacokinetics (elimination half-life, dose proportionality of Cmax and AUC)
Conditions: in the dose range 5 mg-500 mg
Excerpt: “PK” refers to the pharmacokinetic profile. Cmax is defined as the highest plasma drug concentration estimated during an experiment (ng/ml). Tmax is defined as the time when Cmax is estimated (min). AUC0-∞ is the total area under the plasma drug concentration-time curve, from drug administration until the drug is eliminated (ng·hr/ml or μg·hr/ml). The area under the curve is governed by clearance. Clearance is defined as the volume of blood or plasma that is totally cleared of its content of drug per unit time (ml/min).

SMILES: N[C@H]1C[C@@H](C(=O)O)CC1=C(F)F
- AUCs dose proportionality: greater than proportional increase
